Reference: patent US6225478A, “Iridoid derivatives and neovascularization inhibitors containing the same as active ingredient” (Tsumura & Co., priority 1999, dated 2001)

What was measured:
[1] = tested on: human umbilical-vein endothelial cells (HUVEC); assay: Tube Formation Assay (TFA) Test, HUVEC in collagen gel; format: cell-based; settings: Homo sapiens, HUVEC, Tables 75-83; 0.32 mM sample solution; method as for Compounds 1 through 60; read-out: TFA Inhibition rate (%)
Procedure: Furthermore, the sample liquids of compounds used in the CPA and CMA tests were prepared in the manner described below. Firstly, after weighing out each compound, a calculated amount of DMSO was added. After dissolving the compound in the DMSO, phosphate buffered physiological saline (PBS (-)) was added to bring the sample concentration to 1 mg/ml in PBS (-). The amount of DMSO used to dissolve the compounds was adjusted in advance to that the concentration of DMSO at that time was 5%. The resulting liquids were diluted 10-fold with 5% DMSO-PBS (-) solution to prepare sample solutions having a concentration of 0.1 mg/ml. In the TFA test, 320 μl of the prepared 1 mg/ml sample solutions were removed followed by addition of 680 μl of PBS (-) to prepare samples having a concentration of […]. Moreover, 100 μl of this solution was removed followed by addition of 900 μl of PBS (-) to dilute 10-fold and prepare samples having a concentration of 1 μg/ml. P [Cell Proliferation Assay (CPA) Test]
To begin with, 8 volumes of Type 1-A cell matrix (manufactured by Gibco Co.), 1 volume of 10×M119, and 1 volume of reconstituted buffer [200 mM HEPES, 0.05 N sodium hydroxide, 260 mM sodium bicarbonate] were slowly mixed under cooling with ice while avoiding bubbling to form a collagen gel. This collagen gel was distributed in a NUNC 24-well plate at 310 μl/well followed by allowing to stand undisturbed for 2 hours at 37° C. to solidify the gel.
Next, the 7th subculture of HUVEC (1×10^5 cells/ml) obtained from the first generation in the same manner as above were disseminated at 500 μl/well. The cells were cultured for 2 hours at 37° C. to allow the cells to make contact with the collagen. After then removing the medium by aspiration, 50 μl of sample solution were added followed by addition of 310 μl/well of freshly prepared collagen gel and culturing for 1 hour and 10 minutes at 37° C. to solidify the double-layer gel.
1 ml/well of M-199 medium containing 20% FCS, 30 ng /ml of b-FGF and 0.1 μM PMA were added to the wells followed by culturing for 20 hours at 37° C. in the presence of 5% CO2.
Measurement of the lengths of the formed tubes was performed using the public domain NIH Image with a computer.
Evaluation was performed by calculating the inhibition rate (%) of tube formation according to the following formula.
Inhibition rate (%)=100-((formed tube length in presence of sample-formed tube length in presence of control (-))×100/(formed tube length in presence of control (+)-formed tube length in presence of control (-)))
(§1) Samples were prepared using the present compounds of Compound No. I-60 through I-315. More specifically, 32 μl of a 20 mM sample solution dissolved in dimethylsulfoxide (DMSO) were removed and brought to a volume of 1 ml with phosphate-buffered saline (PBS) to prepare a sample solution having a concentration of 0.32 mM (containing 3.2% DMSO).
The testing method used for these compounds was the same as that used for the compounds of Compound No. 1 through 60 previously described.

[2] = tested on: HUFEC; assay: Cell Migration Assay (CMA) Test, inhibitory rate with control (-) correction; format: cell-based, human; settings: Homo sapiens, 24 h, 125 μl of 0.32 mM sample solution in 4.0 ml medium, 80% or more = remarkable
Procedure: as §1
After disseminating the 7th subculture of […] obtained from the first generation at 4 ml/well (3.0×10^5 cells/well) in a collagen-coated 6-well plate (NUNC), the cells were cultured for 48 hours at 37° C. in the presence of 5% CO2. The cells reached nearly a completely confluent state as a result of this culturing.
A double-edged, disposable razor blade was divided into four sections, of which one of those sections was pinched between a pair of forceps. Using this piece of razor blade, the cell surface in the above confluent state was scraped off.
After washing the surface of the wells from which the cells had been scraped off with medium, 4.0 ml of fresh M199 (2+) medium were placed in the wells. 4.0 ml of M199 medium were added to the control (-) well.
125 μl of sample solution (0.32 mM, containing 3.2% dimethylsulfoxide) were added to the wells.
125 μl of PBS solution containing 3.2% dimethylsulfoxide were added to the control wells instead of sample. The cells were cultured for 24 hours at 37° C. in the presence of 5% CO2. After discarding the culture liquid, the cells were fixed for 30 minutes with methanol. Next, after […] the cells for 4 hours with Giemsa stain, the plates were washed with tap water and air dried.
Measurement of cell migration was performed by microscopically counting the number of cells that had newly migrated within the range of a 1 mm×1 mm block. […] The total number of cells counted in blocks 1 through 5 were then totaled to determine the overall total number of cells. Four fields were counted for each well.
Evaluation was performed determining the cell migration inhibitory rate (%) according to the following equation.
Inhibitory rate=100-((number of migrating cells to which sample was added-number of migrating cells of control (-))×100/(number of migrating cells of control (+)-number of migrating cells of control (-)))
If this inhibitory rate was 80% or more, cell migration was assessed as being remarkable.

| SMILES | inhibition at 320 µM (stock) [1] [%] | inhibition at 320 µM (stock) [2] [%] |
| --- | --- | --- |
| COC(=O)C1=CO[C@@H](OC(=O)NCCc2cccs2)[C@H]2[C@@H]1CC[C@@H]2C [I-197] | 4.5 | 20 |
| CCCCCCNC(=O)O[C@@H]1OC=C(C(=O)OC)[C@H]2CC=C(C)[C@@H]12 [I-72] | 5.9 | 42.9 |
| COC(=O)C1=CO[C@@H](OC(=O)NCC(OC)OC)[C@@H]2C(C)=CC[C@H]12 [I-96] | 19.7 | 5.9 |
| COC(=O)C1=CO[C@@H](OC(=O)NCc2ccc(F)cc2)[C@@H]2C(C)=CC[C@H]12 [I-108] | 3 | 11.7 |
| COC(=O)C1=CO[C@@H](OC(=O)NCc2ccc(Cl)cc2)[C@@H]2C(C)=CC[C@H]12 [I-109] | 7.2 | 21.5 |
| COC(=O)C1=CO[C@@H](OC(=O)NC2Cc3ccccc3C2)[C@H]2[C@@H]1CC[C@@H]2C [I-247] | 9.7 | 23.4 |
| COC(=O)C1=CO[C@@H](OC(=O)N2CC=CCC2)[C@@H]2C(C)=CC[C@H]12 [I-91] | 5.1 | 21.6 |
| CNC(=O)OC[C@]12O[C@H]1C[C@@H]1C(C(=O)OC)=COC[C@@H]12 [I-290] | 13.5 | 51.5 |
| COC(=O)C1=CO[C@@H](OC(=O)Nc2ccc(Cl)cc2)[C@H]2[C@@H]1CC[C@@H]2C [I-260] | 2.5 | 8.9 |
| COC(=O)C1=CO[C@@H](OC(=O)NCC2CCCO2)[C@@H]2C(C)=CC[C@H]12 (some centres unmarked) [I-78] | 5.1 | 23.4 |
| COC(=O)C1=CO[C@@H](OC(=O)Nc2ccc(F)cc2F)[C@H]2[C@@H]1CC[C@@H]2C [I-256] | 4 | 5 |
| CNC(=O)O[C@@H]1OC=C(C(=O)OC)[C@H]2CC[C@@H](C)[C@@H]12 [I-280] | 14.9 | 72.4 |
| COC(=O)C1=CO[C@@H](OC(=O)Nc2ccc(Cl)cc2)[C@@H]2C(C)=CC[C@H]12 [I-162] | 7.5 | 8.9 |
| COC(=O)C1=CO[C@@H](OC(=O)N(C)CCN(C)C)[C@H]2[C@@H]1CC[C@@H]2C [I-189] | 4.7 | 8.5 |
| COC(=O)C1=CO[C@@H](OC(=O)Nc2ccc(Cl)cc2C(F)(F)F)[C@@H]2C(C)=CC[C@H]12 [I-164] | 2.5 | 5.9 |
| COC(=O)C1=CO[C@@H](OC(=O)N2CCN(c3ccccc3F)CC2)[C@H]2[C@@H]1CC[C@@H]2C [I-251] | 7.9 | 8.7 |
| COC(=O)C1=CO[C@@H](OC(=O)NCCCl)[C@@H]2C(COC(=O)NCCCl)=CC[C@H]12 [I-288] | 2.4 | 15.9 |
| COC(=O)C1=CO[C@@H](OC(=O)NC2CCCCCC2)[C@H]2[C@@H]1CC[C@@H]2C [I-208] | 8.2 | 7.6 |
| COC(=O)C1=CO[C@@H](OC(=O)NCc2ccc(OC)cc2)[C@@H]2C(C)=CC[C@H]12 [I-83] | 21.4 | 50 |
| COC(=O)C1=CO[C@@H](OC(=O)Nc2cccc(C(C)=O)c2)[C@@H]2C(C)=CC[C@H]12 [I-171] | 5.8 | 3 |

| SMILES | inhibition at 320 µM (stock) [1] [%] | inhibition at 320 µM (stock) [2] [%] |
| --- | --- | --- |
| COC(=O)C1=CO[C@@H](OC(=O)NCCCCCO)[C@@H]2C(C)=CC[C@H]12 [I-104] | 3.8 | 24.1 |
| CCOC(=O)CNC(=O)C1=CO[C@@H](OC(=O)NC)[C@H]2[C@@H]1C[C@@H]1O[C@]21C [I-65] | 32.4 | 73.4 |
| COC(=O)C1=CO[C@@H](OC(=O)N2CCc3ccccc3C2)[C@@H]2C(C)=CC[C@H]12 [I-120] | 7.8 | 3.1 |
| COC(=O)C1=CO[C@@H](OC(N)=O)[C@@H]2C(C)=CC[C@H]12 [I-70] | 75.4 | 7.1 |
| COC(=O)C1=CO[C@@H](OC(=O)N2CCOCC2)[C@H]2[C@@H]1CC[C@@H]2C [I-188] | 10.2 | 7.1 |
| COC(=O)C1=CO[C@@H](OC(=O)NCC2CCCCC2)[C@H]2[C@@H]1CC[C@@H]2C [I-191] | 6 | 8 |
| COC(=O)C1=CO[C@@H](OC(=O)NCc2ccc(S(N)(=O)=O)cc2)[C@@H]2C(C)=CC[C@H]12 [I-133] | 9.5 | 3.9 |
| COC(=O)C1=CO[C@@H](OC(=O)Nc2ccccc2F)[C@H]2[C@@H]1CC[C@@H]2C [I-257] | 3.5 | 8 |
| CNC(=O)OCC1=CC[C@@H]2C(C(=O)OC)=COC[C@H]12 [I-295] | 7.9 | 5.6 |
| COC(=O)C1=CO[C@@H](OC(=O)Nc2c(F)cccc2F)[C@@H]2C(C)=CC[C@H]12 [I-157] | 12.9 | 7.7 |
| C[C@@H]1CC[C@@H]2C(C(=O)N3CCN(CCO)CC3)=COC[C@H]12 [I-305] | 23.1 | 7.6 |
| COC(=O)C1=CO[C@@H](OC(=O)NCCOCCO)[C@H]2[C@@H]1CC[C@@H]2C [I-202] | 26.2 | 6.5 |
| CNC(=O)O[C@@H]1OC=C(C(=O)NC)[C@H]2CC=C(C)[C@@H]12 [I-310] | 20.1 | 20.7 |
| COC(=O)C1=COC[C@H]2[C@@H]1C[C@@H]1O[C@@]12COC(=O)NCCCl [I-291] | 44.5 | 7 |
| C=CCNC(=O)O[C@@H]1OC=C(C(=O)OC)[C@H]2CC=C(C)[C@@H]12 [I-123] | 14.1 | 8 |
| COC(=O)C1=CO[C@@H](OC(=O)NCCO)[C@@H]2C(C)=CC[C@H]12 [I-84] | 21.9 | 8.8 |
| CNC(=O)O[C@@H]1OC=C(C(=O)OC)[C@H]2CC=C(CF)C12 (stereo in doubt) [I-314, (1S,4aS,7aR)-7-(fluoromethyl)-1-(methylcarbamoyloxy)-1,4a,5,7a-tetrahydrocyclopenta [c] pyrane-4-carboxylic acid methylester] | 9.4 | 47.2 |
| COC(=O)C1=CO[C@@H](OC(=O)N2CCN(c3ccccc3F)CC2)[C@@H]2C(C)=CC[C@H]12 [I-149] | 8.7 | 7.5 |
| COC(=O)C1=CO[C@@H](OC(=O)Nc2ccc(F)cc2F)[C@@H]2C(C)=CC[C@H]12 [I-154] | 56.2 |  |
